Reference: US20090029856A1, “Hinokitiol As A Plant Pesticide” (priority 2007, published 2009)
Values joined by “and” are separate entries in the source; they are usually repeats but may differ in a detail not shown here. Equal values may be shown once.

How the values were obtained:
[1] = system: Botrytis gray mold; test: Botrytis gray mold on pepper plants, formulation applied pre and post infection; format: in vivo
Description: Pepper plants (California Wonder Bell Pepper) were treated with a 3.2% Hinokitiol formulation containing propylene glycol, nonphytotoxic ethoxylate fatty esters; butanol, EDTA, UV protection agent, 1% of a 15% solution of sodium hydroxide and water 3 hours before and 24 hours after inoculation (pre and post infection, respectively). Hinokitiol concentration in pre-infection application was 1.0% v/v and for post-infection application was 2.0% v/v. Three plants were included per treatment in pre-infection applications, and 18 plants in post-infection treatments. The formulation employed contained 3.2% of active ingredient. Inoculation was performed with a conidial suspension of 1.8×10^6 conidia per ml of 75% PDB (Potato Dextrose Broth). Scale of evaluation was 0=no infection, 1=Small scattered lesions, 2=Scattered big lesions or small ones covering more than 50% of leaf surface, 3=Half plant dead, 4=75% of the plant dead, 5=Entire plant dead. Evaluation was performed 3 days after inoculation.

[2] = system: grey mold (Botrytis cinerea); test: In vivo greenhouse test on green bell pepper (Capsicum annuum) against grey mold; conditions: for Average (mean) disease rating, 2 days / Average (mean) disease rating, 3 days / Average (mean) disease rating, 7 days: mean of 3 replicates; for rating at day 3 / rating at day 7 / rating at day 2: single replicates
Description: To further test the inhibitory effect of hinokitiol on grey mold (Botrytis cinerea), an in vivo test on green bell pepper (Capsicum annuum) was conducted in a greenhouse. Pepper plants at a 6-true-leaf growth stage were sprayed with hinokitiol in 50% ethanol. The stock solution (5 mg/mL) was prepared in 97% ethanol, and diluted to following concentrations: 0, 0.01, 0.1 mg/mL. To compare the efficacy of hinokitiol in an alcohol-free solution, a treatment with 0.1 mg/mL of hinokitiol in water was included in this study. Pepper plants with no treatment were used as controls. All treatments were carried out in 3 replicates. After treatment with hinokitiol, the leaf surfaces were allowed to dry under the growth lights, after which the plants were inoculated with a B. cinerea spore solution containing 2×10^6 spores per mL. Inoculated plants were incubated in the dark in a covered flat at 22° C. […] Symptoms were rated on a scale of 0-5; 0 indicating no lesions on leaves, and 5 indicating severe rotting/dead plant.

[3] = system: annual bluegrass (Poa annua); test: Pot study, phytotoxicity and % weed control; format: in vivo
Description: (§1) A pot study was conducted to test the phytotoxicity of hinokitiol on both broadleaved and grass weed. Ten seeds of either chickweed (Stellaria media) or annual bluegrass (Poa annua) were planted in a plastic pot filled with potting mix. The 2-inch tall plants grown under growth lights (12-h light/12-h dark) at room temperature were sprayed with hinokitiol solutions containing 0.5, 1.0, 2.0, 3.0, 4.0 and 5.0 mg/mL hinokitiol in 50% ethanol. A solution of 50% ethanol without hinokitiol was used as a control treatment. The plants were kept at room temperature under growth lights and observed at two time points—4 and 14 days after treatment—for visual symptoms of phytotoxicity and % weed control.

[4] = system: chickweed (Stellaria media); test: Pot study, phytotoxicity and % weed control; format: in vivo
Description: as §1

[5] = system: Phoma; test: Hinokitiol spiral PDA plates, growth after 2 days; format: cell-based; conditions: 2 days of incubation
Description: (§2) In this method, a potato dextrose agar (PDA) medium is plated with the test solution by means of a spiral plater, which applies the compound in a 2.5-log dilution in a continuous radial concentration gradient. Fungal inoculum in two replicates is then placed along radial lines across the gradient. […] EC50 values were calculated based on these measurements. The fungi evaluated were members of the following families Anamorphic Phyllachoraceae (Colletotrichum acutatum), Anamorphic Sclerotiniaceae (Botrytis cinerea), Mitosporic fungi (Verticillium dahlias; Microphomina sp.), and Oomycota (Phytophtora capsici). Hinokitiol (5 mg/mL) was dissolved in acetone, and acetone alone was also used as a control to check for non-specific inhibition.
(§3) Another set of hinokitiol spiral PDA plates prepared as above were inoculated with plant pathogenic fungi from the genera Mucor, Rhizoctonia, Geotrichum, Phoma, and Penicillium.

[6] = system: Penicillium; test: Hinokitiol spiral PDA plates, growth after 2 days; format: cell-based; conditions: 2 days of incubation
Description: as §2, §3

[7] = system: Mucor; test: Hinokitiol spiral PDA plates, growth after 2 days; format: cell-based; conditions: 2 days of incubation
Description: as §2, §3

[8] = system: Rhizoctonia; test: Hinokitiol spiral PDA plates, growth after 2 days; format: cell-based; conditions: 2 days of incubation
Description: as §2, §3

[9] = system: Geotrichum; test: Hinokitiol spiral PDA plates, growth after 2 days; format: cell-based; conditions: 2 days of incubation
Description: as §2, §3

[10] = system: Lactuca sativa (lettuce) seedlings; test: High-throughput 96-well post-emergence herbicide assay; format: in vivo
Description: A high-throughput 96-well assay was used to test the efficacy of hinokitiol as a post-emergence, non-selective herbicide. Seedlings of Lactuca sativa (lettuce) were grown in 96-well plates under continuous light. Hinokitiol was added on the one-week old seedlings at a 5×-dilution series from 1 to 0 mg/mL, and the minimum concentration needed for killing the seedling was recorded the next day.

[11] = 0.01 mg/mL in 50% ethanol, scale 0-5
[12] = 0.1 mg/mL in 50% ethanol, scale 0-5
[13] = 0.5 mg/mL in 50% ethanol, 4 DAYS
[14] = 0.5 mg/mL in 50% ethanol, 14 DAYS
[15] = 1.0 mg/mL in 50% ethanol, 4 DAYS
[16] = 1.0 mg/mL in 50% ethanol, 14 DAYS
[17] = 2.0 mg/mL in 50% ethanol, 4 DAYS
[18] = 2.0 mg/mL in 50% ethanol, 14 DAYS
[19] = 3.0 mg/mL in 50% ethanol, 4 DAYS
[20] = 3.0 mg/mL in 50% ethanol, 14 DAYS
[21] = 4.0 mg/mL in 50% ethanol, 4 DAYS
[22] = 4.0 mg/mL in 50% ethanol, 14 DAYS
[23] = 5.0 mg/mL in 50% ethanol, 4 DAYS
[24] = 5.0 mg/mL in 50% ethanol, 14 DAYS

CC(C)c1cccc(=O)c(O)c1 [Hinokitiol, 4-isopropyl tropolone]
number of pepper plants at scale of infection 2 ([1]; 0.64 mg/ml, 24 hr after inoculation, of 18 plants per rep): 12 and 7
number of pepper plants at scale of infection 4 ([1]; 0.64 mg/ml, 24 hr after inoculation, of 18 plants per rep, 4 = 75% of the plant dead): 1 and 2
intensity of disease (scale of severity 0-5), single plants ([1]; 3.2% hinokitiol formulation at 1.0% v/v (0.32 mg/ml), applied 3 hr before inoculation, evaluated 3 days after inoculation, 1 = small scattered lesions, 5 = entire plant dead): 1
visible symptoms of disease or phytotoxicity on pepper plants ([1]; hinokitiol formulation at 1% (0.32 mg/ml) dilution): did not show any visible syptoms of disease or phytotocicity
Average (mean) disease rating, 2 days ([2]; 0.01 mg/mL EtOH, scale 0-5): 1.7 a
Average (mean) disease rating, 3 days ([2]; 0.01 mg/mL EtOH, scale 0-5): 2.7 ab
Average (mean) disease rating, 7 days ([2]; 0.01 mg/mL EtOH, scale 0-5): 3.0 ab
rating at day 3 [2, 11]: 4 and 3 and 1
rating at day 7 [2, 11]: 5 and 3 and 1
rating at day 2 ([2]; 0.01 mg/mL in 50% ethanol, scale 0-5 (0 no lesions, 5 severe rotting/dead plant)): 2 (2×) and 1
Average (mean) disease rating, 2 days ([2]; 0.1 mg/mL EtOH, scale 0-5): 1.7 a
Average (mean) disease rating, 3 days ([2]; 0.1 mg/mL EtOH, scale 0-5): 2.7 ab
Average (mean) disease rating, 7 days ([2]; 0.1 mg/mL EtOH, scale 0-5): 4.0 ab
Average (mean) disease rating, 2 days ([2]; 0.1 mg/mL H2O, scale 0-5): 0.3 b
Average (mean) disease rating, 3 days ([2]; 0.1 mg/mL H2O, scale 0-5): 0.7 b
Average (mean) disease rating, 7 days ([2]; 0.1 mg/mL H2O, scale 0-5): 2.3 b
rating at day 2 [2, 12]: 2 (2×) and 1
rating at day 3 [2, 12]: 3 (2×) and 2
rating at day 7 [2, 12]: 5 (2×) and 2
rating at day 2 ([2]; 0.1 mg/mL in water, scale 0-5): 0 (2×) and 1
rating at day 3 ([2]; 0.1 mg/mL in water, scale 0-5): 0 and 1 (2×)
rating at day 7 ([2]; 0.1 mg/mL in water, scale 0-5): 1 and 2 and 4
incidence of B. cinerea compared with untreated control pepper plants ([2]; 0.1 mg/mL water): significantly lower
disease outbreak and final disease incidence compared with untreated control ([2]; dissolved in ethanol at 0.01 and 0.1 mg/mL): postponed the disease outbreak but the final disease incidence was not significantly different from the untreated control
Poa annua (% control) [3, 13]: 0%
Poa annua (% control) [3, 14]: 0%
Poa annua (% control) [3, 15]: 1%
Poa annua (% control) [3, 16]: 0%
Poa annua (% control) [3, 17]: 2%
Poa annua (% control) [3, 18]: 5%
Poa annua (% control) [3, 19]: 10%
Poa annua (% control) [3, 20]: 15%
Poa annua (% control) [3, 21]: 30%
Poa annua (% control) [3, 22]: 25%
Poa annua (% control) [3, 23]: 50%
Poa annua (% control) [3, 24]: 50%
Stellaria media (% control) [4, 13]: 1%
Stellaria media (% control) [4, 14]: 0%
Stellaria media (% control) [4, 15]: 2%
Stellaria media (% control) [4, 16]: 10%
Stellaria media (% control) [4, 17]: 10%
Stellaria media (% control) [4, 18]: 55%
Stellaria media (% control) [4, 19]: 95%
Stellaria media (% control) [4, 20]: 100%
Stellaria media (% control) [4, 21]: 98%
Stellaria media (% control) [4, 22]: 100%
Stellaria media (% control) [4, 23]: 100%
Stellaria media (% control) [4, 24]: 100%
inhibition of growth [5]: complete inhibition
inhibition of growth [6]: complete inhibition
inhibition of growth [7]: complete inhibition
inhibition of growth [8]: complete inhibition
inhibition of growth [9]: complete inhibition
effect on lettuce seedlings ([10]; concentration of 8 mg/L): not harmful to the plant
minimum concentration needed for killing the seedling ([10]; one-week old lettuce seedlings, recorded the next day): 40 mg/L
